Each molecule was assayed against Gamma-secretase (assay: Inhibition of gamma-secretase in human H4 cells expressing human wild type […] cDNA assessed as reduction in amyloid beta peptides incubated for 16 to 18 hrs by ELISA method).
Format: cell-based

Row | SMILES | IC50 [nM]
1 | COc1cc(N2CCC(Nc3ncc4c(n3)N(c3ccc(F)cc3F)CCO4)CC2)ccn1 | 72.4
2 | COc1cc(N2CCC(Nc3ncc4c(n3)N(c3ccccc3)CCO4)CC2)ccn1 | 25.2
3 | COc1cc(N2CCC(Nc3ncc4c(n3)N(c3ccccc3C)CCO4)CC2)ccn1 | 58.5
4 | Clc1cc(N2CCC(Nc3ncc4c(n3)N(c3ccccc3)CCO4)CC2)ccn1 | 54.3
5 | COc1cc(N2CCC(Nc3ncc4c(n3)N(c3ccccc3Cl)CCO4)CC2)ccn1 | 54.8
6 | COc1cc(N2CCC(Nc3ncc4c(n3)N(c3cc(F)cc(F)c3)CCO4)CC2)ccn1 | 25.6
7 | COc1cc(N2CCC(Nc3ncc4c(n3)N(c3cc(F)c(F)c(F)c3)CCO4)CC2)ccn1 | 56
8 | Cc1ccccc1N1CCOc2cnc(NC3CCN(c4ccnc(Cl)c4)CC3)nc21 | 90
9 | COc1cc(N2CCC(Nc3ncc4c(n3)N(c3ccccc3OC(F)(F)F)CCO4)CC2)ccn1 | 20.8
10 | COc1cc(N2CCC(Nc3ncc4c(n3)N(c3ccc(Cl)cc3)CCO4)CC2)ccn1 | 25.4
11 | COc1cc(N2CCC(Nc3ncc4c(n3)N(c3ccc(F)cc3C(F)(F)F)CCO4)CC2)ccn1 | 11.9
12 | COc1cc(N2CCC(Nc3ncc4c(n3)N(c3ccc(F)cc3)CCO4)CC2)ccn1 | 30.5

Source: ChEMBL document CHEMBL3621190, “Fused Morphlinopyrimidines and Methods of Use Thereof” (ACS Med Chem Lett, 2015)
